The results in this text go back to US11197861B2, “Methods of screening BRaf inhibitors for treating cutaneous reactions” (Lutris Pharma Ltd., priority 2016, dated 2021).

In this assay the test system is MAPK (ERK). Description: Activation of MAPK (ERK) in human normal keratinocytes (HEKa), Western blot of phospho-ERK / total ERK. In kind it is cell-based. To be noted: human primary keratinocytes (HEKa), 2 hours treatment. The method, then:
Human normal Keratinocyte cells HEKa were seeded in 10 cm dishes (300,000 cells/dish) and incubated overnight at 37° C., 5% CO2. Next morning, the cells were starved for 2 hours and then treated with the various inhibitors (or control treatments) for 2 hours. Post incubation the cells were lyzed with RIPA Buffer and the protein extracts were analyzed by Western-Blot for detection of phospho ERK and total ERK2, by use of suitable antibodies. Untreated and 0.1% DMSO treated cells were used as negative control. Growth factors mix (HKGS) was used as positive control (Gibco CAT #: S0015).
Western Blot: 7.5 μg of total extract was loaded on 10% or 12% acrylamide gels. Following transfer, the membranes were blocked with TBST/5% skim milk and then incubated with Mouse anti phospho ERK (1:1000 in TBST 5% BSA, ON at 4° C.) and goat anti Mouse HRP (1:10,000 in TBST 5% BSA, 1 hour RT). The membranes were exposed using SuperSignal West Pico Chemiluminescent Substrate. The HRP was then inactivated by incubating the membranes for 1 hour with 0.5% Sodium azide. Following washes and ECL exposure in order to ensure absence of signal, the membranes were reblocked for 15 min with TBST/5% skim milk and then incubated with Rabbit anti total ERK2 (1:500 in TBST 5% BSA, ON at 4° C.), goat anti Rabbit HRP (1:5,000 in TBST 5% BSA, 1 hour RT) and finally exposed using the SuperSignal West Pico Chemiluminescent Substrate. The resulting images (films) were scanned and the signal were quantified using ImageJ software. BRaf inhibitors used in the experiments included, C-1, C-15, C-19 C-A or vemurafenib, at concentrations of 0.3 μM; 1 μM or 3 μM. ZM (ZM336372) a c-Raf inhibitor, which serves in the present experiments as a Braf activator and was used as a control.
For orientation: In western blotting, separated proteins are transferred to a membrane and probed.

[1] abbreviates: increasing amounts 0.3 μM, 1 μM or 3 μM, FIGS. 1-3.

As for `Cc1ccc(NC(=O)c2cccc(N(C)C)c2)cc1NC(=O)c1ccc(O)cc1` [ZM 336372], the “activation of ERK (increase in relative amount of Phosphorylated ERK)” value reads like this: (1 μM, FIGS. 4A-C) “activation of ERK”; under setting [1], “activation of ERK”.

Take `Cc1ccc2c(Nc3ccc(Cl)cc3)nccc2c1Nc1ncccc1-c1ncnc2[nH]cnc12` [C-1]: the “activation of ERK (increase in relative amount of Phosphorylated ERK)” value was “activation of ERK” (1 μM, FIGS. 4A-C) and “activation of ERK” under setting [1].

For `CNc1ncc2cc(-c3c(C)ccc4c(Nc5cccc(OC(F)(F)F)c5)nc(C)nc34)ccc2n1` [C-A], the “activation of ERK (increase in relative amount of Phosphorylated ERK)” value is, setting by setting: (1 μM, FIGS. 4A-C) “activation of ERK”; under setting [1], “activation of ERK”.

For `CNc1ncc2cc(-c3c(C)ccc4c(Nc5cc(C(C)(C)C)nn5C)nccc34)ccc2n1` [C-19], the “activation of ERK (increase in relative amount of Phosphorylated ERK)” value is, setting by setting: (1 μM, FIGS. 4A-C) “activation of ERK”; under setting [1], “activation of ERK”.

Regarding `C#Cc1cccc(Nc2nccc3c(Nc4ncccc4-c4cc(NC)ncn4)c(C)ccc23)c1` [C-15], the “activation of ERK (increase in relative amount of Phosphorylated ERK)” value by setting is: (1 μM, FIGS. 4A-C) “activation of ERK”; under setting [1], “activation of ERK”.
